Data reported in PubChem BioAssay AID2060895 (Molecular Pharmacology Branch, DTP, NCI, 2025).
One block for each compound: values may come before it.

Test system: PDC 899932-113-R3-J6 complex spheroid viability
Assay: Anticancer human tumor 899932-113-R3-J6-PDC patient-derived melanoma cell line growth inhibition [RAS]
Settings: for IC50: curve of first compound; for viability, T/C: stronger effect = lower value
Outline: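 Agents were tested in combination matrices in half-log decrements from a top concentration at or near clinical Cmax (10 microM if undetermined). Targets were multi-cell spheroids of tumour lines plus HUVEC and MSC stromal cells.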

[1] = second compound 0.000949 µM, first compound 0.0316 µM
[2] = second compound 0.000949 µM, first compound 0.1 µM
[3] = second compound 0.000949 µM, first compound 0.316 µM
[4] = second compound 0.000949 µM, first compound 1 µM
[5] = second compound 0.000949 µM, first compound 3.16 µM
[6] = second compound 0.000949 µM, first compound 10 µM
[7] = second compound 0.003 µM, first compound 0.0316 µM
[8] = second compound 0.003 µM, first compound 0.1 µM
[9] = second compound 0.003 µM, first compound 0.316 µM
[10] = second compound 0.003 µM, first compound 1 µM
[11] = second compound 0.003 µM, first compound 3.16 µM
[12] = second compound 0.003 µM, first compound 10 µM
[13] = second compound 0.00949 µM, first compound 0.0316 µM
[14] = second compound 0.00949 µM, first compound 0.1 µM
[15] = second compound 0.00949 µM, first compound 0.316 µM
[16] = second compound 0.00949 µM, first compound 1 µM
[17] = second compound 0.00949 µM, first compound 3.16 µM
[18] = second compound 0.00949 µM, first compound 10 µM
[19] = second compound 0.03 µM, first compound 0.0316 µM
[20] = second compound 0.03 µM, first compound 0.1 µM
[21] = second compound 0.03 µM, first compound 0.316 µM
[22] = second compound 0.03 µM, first compound 1 µM
[23] = second compound 0.03 µM, first compound 3.16 µM
[24] = second compound 0.03 µM, first compound 10 µM
[25] = second compound 0.0949 µM, first compound 0.0316 µM
[26] = second compound 0.0949 µM, first compound 0.1 µM
[27] = second compound 0.0949 µM, first compound 0.316 µM
[28] = second compound 0.0949 µM, first compound 1 µM
[29] = second compound 0.0949 µM, first compound 3.16 µM
[30] = second compound 0.0949 µM, first compound 10 µM
[31] = second compound 0.3 µM, first compound 0.0316 µM
[32] = second compound 0.3 µM, first compound 0.1 µM
[33] = second compound 0.3 µM, first compound 0.316 µM
[34] = second compound 0.3 µM, first compound 1 µM
[35] = second compound 0.3 µM, first compound 3.16 µM
[36] = second compound 0.3 µM, first compound 10 µM
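For viability, T/C in this document: spheroids exposed to agents for seven days before readout; 100% = DMSO vehicle control wells.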

IC50 (second compound 0.000949 µM): 5520 nM
IC50 (second compound 0.003 µM): 5970 nM
IC50 (second compound 0.00949 µM): 5590 nM
IC50 (second compound 0.03 µM): 4900 nM
IC50 (second compound 0.0949 µM): 3860 nM
IC50 (second compound 0.3 µM): 2640 nM
SMILES: CC(C)NCC(C(=O)N1CCN(c2ncnc3c2C(C)CC3O)CC1)c1ccc(Cl)cc1 (stereo not drawn) + CCn1c(-c2cccnc2C(C)OC)c2c3cc(ccc31)N1CCOC(CC(NC(=O)C(C(C)C)N(C)C(=O)C3(F)CCN(C(=O)C#CC(C)(C)N(C)C)CC3)C(=O)N3CCCC(N3)C(=O)OCC(C)(C)C2)C1
viability, T/C [1]: 105%
viability, T/C [2]: 97.3%
viability, T/C [3]: 97%
viability, T/C [4]: 84.2%
viability, T/C [5]: 62.5%
viability, T/C [6]: 36.5%
viability, T/C [7]: 112%
viability, T/C [8]: 106%
viability, T/C [9]: 97.3%
viability, T/C [10]: 80%
viability, T/C [11]: 68.7%
viability, T/C [12]: 36.5%
viability, T/C [13]: 111%
viability, T/C [14]: 107%
viability, T/C [15]: 96%
viability, T/C [16]: 90.7%
viability, T/C [17]: 59.2%
viability, T/C [18]: 39%
viability, T/C [19]: 99.3%
viability, T/C [20]: 105%
viability, T/C [21]: 96.2%
viability, T/C [22]: 80.8%
viability, T/C [23]: 58%
viability, T/C [24]: 38%
viability, T/C [25]: 97.3%
viability, T/C [26]: 97.8%
viability, T/C [27]: 88%
viability, T/C [28]: 71.4%
viability, T/C [29]: 53.8%
viability, T/C [30]: 36.7%
viability, T/C [31]: 89.1%
viability, T/C [32]: 84.8%
viability, T/C [33]: 74.3%
viability, T/C [34]: 60.2%
viability, T/C [35]: 49.5%
viability, T/C [36]: 32.6%

IC50 (second compound 0.000949 µM): > 100 nM
IC50 (second compound 0.003 µM): > 100 nM
IC50 (second compound 0.00949 µM): > 100 nM
IC50 (second compound 0.03 µM): > 100 nM
IC50 (second compound 0.0949 µM): > 100 nM
IC50 (second compound 0.3 µM): > 100 nM
SMILES: CC(C)n1nc(-c2ccc3oc(N)nc3c2)c2c(N)ncnc21 + CCn1c(-c2cccnc2C(C)OC)c2c3cc(ccc31)N1CCOC(CC(NC(=O)C(C(C)C)N(C)C(=O)C3(F)CCN(C(=O)C#CC(C)(C)N(C)C)CC3)C(=O)N3CCCC(N3)C(=O)OCC(C)(C)C2)C1
viability, T/C (second compound 0.000949 µM, first compound 0.000316 µM): 107%
viability, T/C (second compound 0.000949 µM, first compound 0.001 µM): 97.1%
viability, T/C (second compound 0.000949 µM, first compound 0.00316 µM): 101%
viability, T/C (second compound 0.000949 µM, first compound 0.01 µM): 85%
viability, T/C [1]: 60.3%
viability, T/C [2]: 100%
viability, T/C (second compound 0.003 µM, first compound 0.000316 µM): 92.3%
viability, T/C (second compound 0.003 µM, first compound 0.001 µM): 107%
viability, T/C (second compound 0.003 µM, first compound 0.00316 µM): 96.7%
viability, T/C (second compound 0.003 µM, first compound 0.01 µM): 82%
viability, T/C [7]: 65%
viability, T/C [8]: 102%
viability, T/C (second compound 0.00949 µM, first compound 0.000316 µM): 105%
viability, T/C (second compound 0.00949 µM, first compound 0.001 µM): 100%
viability, T/C (second compound 0.00949 µM, first compound 0.00316 µM): 92.5%
viability, T/C (second compound 0.00949 µM, first compound 0.01 µM): 85.6%
viability, T/C [13]: 65.5%
viability, T/C [14]: 100%
viability, T/C (second compound 0.03 µM, first compound 0.000316 µM): 104%
viability, T/C (second compound 0.03 µM, first compound 0.001 µM): 98.5%
viability, T/C (second compound 0.03 µM, first compound 0.00316 µM): 89.3%
viability, T/C (second compound 0.03 µM, first compound 0.01 µM): 86.1%
viability, T/C [19]: 61%
viability, T/C [20]: 94.3%
viability, T/C (second compound 0.0949 µM, first compound 0.000316 µM): 95.2%
viability, T/C (second compound 0.0949 µM, first compound 0.001 µM): 93.5%
viability, T/C (second compound 0.0949 µM, first compound 0.00316 µM): 91.3%
viability, T/C (second compound 0.0949 µM, first compound 0.01 µM): 76.7%
viability, T/C [25]: 61.1%
viability, T/C [26]: 93.1%
viability, T/C (second compound 0.3 µM, first compound 0.000316 µM): 86.7%
viability, T/C (second compound 0.3 µM, first compound 0.001 µM): 80.1%
viability, T/C (second compound 0.3 µM, first compound 0.00316 µM): 75.6%
viability, T/C (second compound 0.3 µM, first compound 0.01 µM): 57.9%
viability, T/C [31]: 51.2%
viability, T/C [32]: 92.9%

IC50 (second compound 0.000949 µM): 1620 nM
IC50 (second compound 0.003 µM): 1870 nM
IC50 (second compound 0.00949 µM): 1380 nM
IC50 (second compound 0.03 µM): 1370 nM
IC50 (second compound 0.0949 µM): 650 nM
IC50 (second compound 0.3 µM): 153 nM
SMILES: CC(Nc1ccc2c(c1)OCCn1cc(N3C(=O)OCC3C(F)F)nc1-2)C(N)=O (stereo not drawn) + CCn1c(-c2cccnc2C(C)OC)c2c3cc(ccc31)N1CCOC(CC(NC(=O)C(C(C)C)N(C)C(=O)C3(F)CCN(C(=O)C#CC(C)(C)N(C)C)CC3)C(=O)N3CCCC(N3)C(=O)OCC(C)(C)C2)C1
viability, T/C [1]: 94.8%
viability, T/C [2]: 78.5%
viability, T/C [3]: 64.5%
viability, T/C [4]: 56.1%
viability, T/C [5]: 43.4%
viability, T/C [6]: 36.1%
viability, T/C [7]: 90.1%
viability, T/C [8]: 80.9%
viability, T/C [9]: 67%
viability, T/C [10]: 55.6%
viability, T/C [11]: 46%
viability, T/C [12]: 34.1%
viability, T/C [13]: 94.7%
viability, T/C [14]: 80.5%
viability, T/C [15]: 66.4%
viability, T/C [16]: 51.2%
viability, T/C [17]: 44.6%
viability, T/C [18]: 36%
viability, T/C [19]: 86.5%
viability, T/C [20]: 75.8%
viability, T/C [21]: 59.8%
viability, T/C [22]: 57.2%
viability, T/C [23]: 40.5%
viability, T/C [24]: 34%
viability, T/C [25]: 79.5%
viability, T/C [26]: 64.7%
viability, T/C [27]: 57%
viability, T/C [28]: 46%
viability, T/C [29]: 39.2%
viability, T/C [30]: 31.8%
viability, T/C [31]: 69.5%
viability, T/C [32]: 52%
viability, T/C [33]: 45%
viability, T/C [34]: 36.9%
viability, T/C [35]: 34.2%
viability, T/C [36]: 29.4%

IC50 (second compound 0.000949 µM): 9800 nM
IC50 (second compound 0.003 µM): 8890 nM
IC50 (second compound 0.00949 µM): 9630 nM
IC50 (second compound 0.03 µM): > 10000 nM
IC50 (second compound 0.0949 µM): > 10000 nM
IC50 (second compound 0.3 µM): > 10000 nM
SMILES: C[C@@H](NC(=O)c1ncnc(N)c1Cl)c1ncc(C(=O)Nc2cc(C(F)(F)F)c(Cl)cn2)s1 + CCn1c(-c2cccnc2C(C)OC)c2c3cc(ccc31)N1CCOC(CC(NC(=O)C(C(C)C)N(C)C(=O)C3(F)CCN(C(=O)C#CC(C)(C)N(C)C)CC3)C(=O)N3CCCC(N3)C(=O)OCC(C)(C)C2)C1
viability, T/C [1]: 117%
viability, T/C [2]: 129%
viability, T/C [3]: 141%
viability, T/C [4]: 141%
viability, T/C [5]: 120%
viability, T/C [6]: 48.9%
viability, T/C [7]: 122%
viability, T/C [8]: 125%
viability, T/C [9]: 137%
viability, T/C [10]: 150%
viability, T/C [11]: 119%
viability, T/C [12]: 42.2%
viability, T/C [13]: 125%
viability, T/C [14]: 127%
viability, T/C [15]: 140%
viability, T/C [16]: 139%
viability, T/C [17]: 120%
viability, T/C [18]: 47.1%
viability, T/C [19]: 121%
viability, T/C [20]: 132%
viability, T/C [21]: 139%
viability, T/C [22]: 141%
viability, T/C [23]: 130%
viability, T/C [24]: 52.5%
viability, T/C [25]: 114%
viability, T/C [26]: 127%
viability, T/C [27]: 135%
viability, T/C [28]: 138%
viability, T/C [29]: 120%
viability, T/C [30]: 51.6%
viability, T/C [31]: 108%
viability, T/C [32]: 118%
viability, T/C [33]: 127%
viability, T/C [34]: 134%
viability, T/C [35]: 117%
viability, T/C [36]: 54%
